Assay results from the supplement of paper PMC13380429.

Key:
Conditions in all cases: 72 h
[1] = tested on: Caco-2; assay: cell viability relative to DMSO; higher = less toxic
[2] = tested on: Calu-3; assay: as above
[3] = tested on: HepG2; assay: as above
[4] = tested on: U2OS; assay: as above
[5] = tested on: Vero E6; assay: as above
[6] = tested on: Caco-2; assay: relative viability EC50 (midpoint between 100% and the lowest measured viability); higher = less toxic
[7] = tested on: Calu-3; assay: as above
[8] = tested on: HepG2; assay: as above
[9] = tested on: U2OS; assay: as above
[10] = tested on: Vero E6; assay: as above
[11] = tested on: Caco-2; assay: drug sensitivity score (DSS) for viability; higher = more toxic; extreme values may be limits of the assay
[12] = tested on: Calu-3; assay: as above
[13] = tested on: HepG2; assay: as above
[14] = tested on: U2OS; assay: as above
[15] = tested on: Vero E6; assay: as above

Structure (SMILES)	cell viability ([1]; 1 nM) [%]	cell viability ([1]; 10 nM) [%]	cell viability ([1]; 100 nM) [%]	cell viability ([1]; 1000 nM) [%]	cell viability ([1]; 10000 nM) [%]	cell viability ([2]; 1 nM) [%]	cell viability ([2]; 10 nM) [%]	cell viability ([2]; 100 nM) [%]	cell viability ([2]; 1000 nM) [%]	cell viability ([2]; 10000 nM) [%]	cell viability ([3]; 1 nM) [%]	cell viability ([3]; 10 nM) [%]	cell viability ([3]; 100 nM) [%]	cell viability ([3]; 1000 nM) [%]	cell viability ([3]; 10000 nM) [%]	cell viability ([4]; 1 nM) [%]	cell viability ([4]; 10 nM) [%]	cell viability ([4]; 100 nM) [%]	cell viability ([4]; 1000 nM) [%]	cell viability ([4]; 10000 nM) [%]	cell viability ([5]; 1 nM) [%]	cell viability ([5]; 10 nM) [%]	cell viability ([5]; 100 nM) [%]	cell viability ([5]; 1000 nM) [%]	cell viability ([5]; 10000 nM) [%]	relative viability EC50 [6] [µM]	relative viability EC50 [7] [µM]	relative viability EC50 [8] [µM]	relative viability EC50 [9] [µM]	relative viability EC50 [10] [µM]	drug sensitivity score [11]	drug sensitivity score [12]	drug sensitivity score [13]	drug sensitivity score [14]	drug sensitivity score [15]
CCOC(=O)Nc1cc2c(c(N)n1)N=C(c1ccccc1)[C@H](C)N2 [mivobulin]	103	52.5	48.7	47.3	42.2	95.7	65.2	37.5	40.7	42.7	99.6	42.9	24.1	21.5	22.9	95.7	38.6	20.7	23.3	21.9	94.3	20.2	8.2	9.9	13.5	0.0055	0.0083	0.0067	0.005	0.0039	23.8	23.7	31.1	32.4	38.5
COc1ccccc1C(=O)Nc1cc2c(cc1N1CCCC1)n(C)c(=O)n2C [PFI-4]	104	99.8	92.7	89.1	77.6	93.7	104	94.7	106	98	92.7	93.1	94.1	96.5	91.5	101	101	97.6	99.4	92	99.2	102	96.2	92.2	89	> 10	> 10	> 10	> 10	> 10	1.6	0	0	0	0
NC(=O)c1ccc2[nH]ccc2c1 [SD-169]	94.7	90.8	100	92.9	99.2	103	87.6	98.5	99.6	101	93.7	92.4	102	102	83.4	104	104	102	98.9	101	98.8	99.1	92.6	97.6	89.8	> 10	> 10	> 10	> 10	> 10	0	0	0.3	0	0
CCc1cn([C@H]2C[C@H](O)[C@@H](CO)O2)c(=O)[nH]c1=O [edoxudine]	89.6	93.6	99.9	88.2	99.5	102	95.6	101	97	99.1	93.8	88.3	98.6	87.4	85.8	102	101	98.8	98.8	95.3	102	101	98	96	92.4	> 10	> 10	> 10	> 10	> 10	0	0	0	0	0
CCCn1c(=O)[nH]c(=O)c2nc[nH]c21 [enprofylline]	104	100	99.5	104	95.5	105	96.9	95.6	108	109	97.4	110	100	95.9	88.2	104	99.1	98.9	97.6	104	97.6	98.3	91.1	94.7	94.5	> 10	> 10	> 10	> 10	> 10	0	0	0.2	0	0
C[C@H](CS)C(=O)N1CCC[C@H]1C(=O)O [captopril]	96.1	92.8	96.8	90.9	89.6	103	111	93.4	95.4	97.4	99.5	95.7	105	95.3	108	98.6	101	94.9	98	97.3	108	100	107	100	96.6	> 10	> 10	> 10	> 10	> 10	0	0	0	0	0
CCC[N+]12[C@H](O)[C@@H](CC)[C@@H]3C[C@H]1[C@@H]1N(C)c4ccccc4[C@]14C[C@H]2[C@@H]3[C@H]4O [neo-gilurytmal]	103	99.3	92.6	86.2	93.1	104	98	96.4	100	91.4	93.4	99.1	92.3	97.8	104	100	95.7	101	91.5	101	100	99.4	98.4	97.4	95.7	> 10	> 10	> 10	> 10	> 10	1.3	0	0	0	0
CC(C)C(=O)SCCCCC[C@H](NC(=O)OC(C)(C)C)C(=O)NC12CC3CC(CC(C3)C1)C2 [TCS-HDAC6-20b]	97.7	96.9	95.5	102	103	101	93.3	95.6	108	85.3	101	99.3	101	96.5	105	101	102	106	98.4	98.4	96.5	96.2	97	98.9	113	> 10	> 10	> 10	> 10	> 10	0	0.1	0	0	0
CCCC(=O)C1(c2ccccc2)CCN(C(=O)[C@@H](Cc2ccc(OC)cc2)NC(=O)[C@@H](N)Cc2cncn2C)CC1	108	94.9	97.3	102	99.7	98.3	100	96.6	101	106	95.4	105	97.8	118	95.3	98.8	97.9	104	102	97.7	102	101	98.7	102	97.1	> 10	> 10	> 10	> 10	> 10	0	0	0	0	0
NC(=O)C1=CN([C@@H]2O[C@H](COP(=O)(O)OP(=O)(O)OC[C@H]3O[C@@H](n4cnc5c(N)ncnc54)[C@H](OP(=O)(O)O)[C@@H]3O)[C@@H](O)[C@H]2O)C=CC1 [NADPH]	86.7	92.7	88.4	93	91.9	90.8	85.1	87.7	91	101	101	104	97.7	86.2	104	94.1	101	98.4	102	98.1	105	86	103	94.6	99.5	> 10	> 10	> 10	> 10	> 10	0	0.1	0	0	0
OC[C@H]1O[C@@H](O[C@@H]2[C@H](O)[C@@H](O)[C@H](O[C@H]3[C@H](O)[C@@H](O)C(O)O[C@@H]3CO)O[C@@H]2CO)[C@H](O)[C@@H](O)[C@H]1O (stereo not given in full) [4-galactosyllactose]	118	96.6	123	78.8	91.7	102	99.3	98.2	93.3	101	111	113	101	102	98.3	103	96.4	102	94.8	101	97.3	105	103	101	99.2	> 10	> 10	> 10	> 10	> 10	2.5	0	0	0	0
FC(F)(F)C(F)(F)C(F)(F)C(F)(F)C(F)(F)C(F)(F)C(F)(F)C(F)(F)Br [perflubron]	97	98.9	91.8	103	91.2	87.9	108	98.1	102	93.4	104	102	99.9	96.4	105	98.1	100	94.1	104	97.1	109	101	102	92.4	96.7	> 10	> 10	> 10	> 10	> 10	0	0	0	0	0
CN1C(=O)OC(C)(C)C1=O [trimethadione]	101	97.3	114	90	93.3	96.1	102	97.9	118	108	103	105	93.6	80.4	90	103	99.9	103	105	108	100	100	101	85.1	104	> 10	> 10	> 10	> 10	> 10	0	0	3.4	0	0
